Reference: patent US8106233B2, “Antioxidant compounds” (Merck Patent GmbH, priority 2005, dated 2012)

Key:
[1] = 2,2-diphenyl-1-picrylhydrazyl (DPPH) assay; conditions: DPPH in ethanol, 515 nm, 25° C.
Method: The unpaired electron results in a strong absorption band at 515 nm, and the solution has a dark-violet colour. In the presence of a free-radical scavenger, the electron is paired, the absorption disappears, and the decoloration proceeds stoichiometrically taking into account the electrons taken up. The absorbance is measured in a photometer. The anti-free-radical property of the substance to be tested is determined by measuring the concentration at which 50% of the 2,2-diphenyl-1-picrylhydrazyl employed has reacted with the free-radical scavenger. This concentration is expressed as EC50, a value which should be regarded as a property of the substance under the given measurement conditions. The substance investigated is compared with a standard (for example tocopherol). The EC50 value here is a measure of the capacity of the respective compound to scavenge free radicals. The lower the EC50 value, the higher the capacity to scavenge free radicals. […] A further important aspect for the action of the antioxidants is the time in which this EC50 value is achieved. This time, measured in minutes, gives the TEC50 value, which allows a conclusion to be drawn on the rate at which these antioxidants scavenge free radicals. […] The unpaired electron results in a strong absorption band at 515 nm, and the solution has a dark-violet colour. In the presence of a free-radical scavenger, the electron is paired, the absorption disappears, and the decoloration proceeds stoichiometrically taking into account the electrons taken up. The absorbance is measured in a photometer. The anti-free-radical property of the substance to be tested is determined by measuring the concentration at which 50% of the 2,2-diphenyl-1-picrylhydrazyl employed have reacted with the free-radical scavenger. This concentration is expressed as EC50, a value which should be regarded as a substance property under the given measurement conditions. The substance investigated is compared with a standard (for example tocopherol). The EC50 value here is a measure of the capacity of the respective compound to scavenge free radicals. The lower the EC50 value, the higher the capacity to scavenge free radicals. […] Various concentrations of the compound to be tested are added to aliquots of this solution. The absorbance is measured in each case at 515 nm, 25° C. and 1 cm. […] The lower this value, the higher the corresponding free-radical-reducing activity. The reaction time needed to achieve this value is indicated in the value TEC50 (in minutes).

[2] = Oxidation in UV light: change in the UV spectrum on irradiation; assay type: physicochemical; conditions: xenon lamp
Method: The curves stand for the unirradiated substance (exposed to 0 kJ/m^2), after irradiation for 15 min (exposure to 86 kJ/m^2), after irradiation for 65 min (exposure to 373 kJ/m^2), after irradiation for 235 min (exposure to 1349 kJ/m^2) and after irradiation for 405 min (exposure to 2325 kJ/m^2).

[3] = Oxidation in UV light in the presence of further antioxidants: beta-carotene emulsions on irradiation; assay type: physicochemical; conditions: emulsion with 0.5% by weight beta-carotene and 4% by weight compound vs emulsion without compound, UV irradiation for 90 min, n=4

Structure (SMILES) | Stability TEC50 (reaction time needed to achieve EC50) [1] | Emax of the UV-A absorption formed on irradiation ([2]; after UV irradiation, 290-400 nm) | Change in UV absorption in the UV-A region on irradiation ([2]; after irradiation for 65 min (373 kJ/m^2), 95.69 W/m^2 in the range 290-400 nm, increases further on longer irradiation) | Effect on beta-carotene degradation (absorption at Emax 440-480 nm) in emulsion [3]
O=C1O[C@H]([C@@H](O)CO)C(O)=C1O [Ascorbic acid] | <5 min |  |  | 
O=C1OC(C(O)CO)C(OP(=O)(O)O)=C1O (stereo not drawn) [Ascorbyl (2-O) phosphate] | 1200 min |  |  | 
CCCCC(CC)COC(=O)C(Cc1cc(OC)c(O)c(OC)c1)C(=O)OCC(CC)CCCC (stereo not drawn) [Hydroxy dimethoxybenzyl malonate, di-2-ethylhexyl 4-hydroxy-3,5-dimethoxy-benzylmalonate] | 600 min | 320-340 nm | significantly increased UV absorption | stabilises the beta-carotene
CCCCC(CC)COC(=O)C(=Cc1cc(OC)c(O)c(OC)c1)C(=O)OCC(CC)CCCC (stereo not drawn) [Hydroxy dimethoxybenzylidene malonate, Di-2-ethylhexyl (4-hydroxy-3,5-dimethoxybenzylidene)malonate] | 1200 min |  |  | 

Now from value to molecule:

Stability TEC50 (reaction time needed to achieve EC50) [1] | Emax of the UV-A absorption formed on irradiation ([2]; after UV irradiation, 290-400 nm) | Change in UV absorption in the UV-A region on irradiation ([2]; after irradiation for 65 min (373 kJ/m^2), 95.69 W/m^2 in the range 290-400 nm, increases further on longer irradiation) | Effect on beta-carotene degradation (absorption at Emax 440-480 nm) in emulsion [3] | Structure (SMILES)
30 min |  |  |  | Cc1c(C)c2c(c(C)c1O)CC[C@@](C)(CCC[C@H](C)CCC[C@H](C)CCCC(C)C)O2 [alpha-Tocopherol]
600 min |  |  |  | CC(=O)Oc1c(C)c(C)c2c(c1C)CCC(C)(CCC[C@H](C)CCC[C@H](C)CCCC(C)C)O2 (stereo partly drawn) [alpha-Tocopheryl acetate]
